SMILES strings stand for the structures.

This assay concerns the target T1, recombinant human LPLA2 (hLPLA2) (Homo sapiens, UniProt Q8NCC3).
T1 construct: gene PLA2G15; recombinant human enzyme from Proteos
T1 sequence (Q8NCC3 34-412): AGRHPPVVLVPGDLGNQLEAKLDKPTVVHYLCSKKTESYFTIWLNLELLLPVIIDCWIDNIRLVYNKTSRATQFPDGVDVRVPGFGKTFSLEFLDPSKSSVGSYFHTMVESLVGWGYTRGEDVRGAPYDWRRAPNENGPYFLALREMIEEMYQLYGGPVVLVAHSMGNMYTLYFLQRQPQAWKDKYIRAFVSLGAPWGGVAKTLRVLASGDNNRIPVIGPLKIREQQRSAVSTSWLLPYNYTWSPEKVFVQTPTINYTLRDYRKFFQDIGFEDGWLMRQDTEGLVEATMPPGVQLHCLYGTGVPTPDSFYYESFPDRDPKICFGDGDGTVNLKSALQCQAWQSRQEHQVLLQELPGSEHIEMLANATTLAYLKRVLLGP
The assay can be described thus: oleic acid release from liposomes, HPTLC. The assay is classed as biochemical. As to conditions: DODPC/S,S-(3,3′,C18:1)-BMP liposomes (2.3:1), 50 mM sodium acetate pH 4.5, 37°C, 5 min pre-incubation of drug with liposomes; read-out: Lipase Inhibition IC50 μM (BMP)^g. The text has this:
oleic acid release from liposomes, HPTLC on recombinant human LPLA2 (hLPLA2)

In general, IC50 refers to the concentration that gives 50% inhibition. As to `CC[C@H](NC(=O)c1c(C)c(-c2ccccc2)nc2ccccc12)c1ccccc1` [SB222200, 3-methyl-2-phenyl-N-[(1S)-1-phenylpropyl]quinoline-4-carboxamide], the IC50 is 28.7 µM. To `CCCCc1oc2ccccc2c1C(=O)c1cc(I)c(OCCN(CC)CC)c(I)c1` [amiodarone, (2-butyl-1-benzofuran-3-yl)-[4-[2-(diethylamino)ethoxy]-3,5-diiodophenyl]methanone] belongs 18 µM. To `CCOC(=O)C1=C(COCCN)NC(C)=C(C(=O)OC)C1c1ccccc1Cl` (stereo not drawn) [amlodipine, 3-O-ethyl 5-O-methyl 2-(2-aminoethoxymethyl)-4-(2-chlorophenyl)-6-methyl-1,4-dihydropyridine-3,5-dicarboxylate] belongs 24 µM; to `CC(C)(C)c1ccc(CN2CCN(C(c3ccccc3)c3ccc(Cl)cc3)CC2)cc1` (stereo not drawn) [buclizine, 1-[(4-tert-butylphenyl)methyl]-4-[(4-chlorophenyl)-phenylmethyl]piperazine], 16 µM; to `COc1ccccc1OCCNCC(O)COc1cccc2[nH]c3ccccc3c12` (stereo not drawn) [carvedilol, 1-(9H-carbazol-4-yloxy)-3-[2-(2-methoxyphenoxy)ethylamino]propan-2-ol], 34.7 µM.

In the case of `CN(C)CCCN1c2ccccc2Sc2ccc(Cl)cc21` [chlorpromazine, 3-(2-chlorophenothiazin-10-yl)-N,N-dimethylpropan-1-amine], the IC50 was determined as 9.7 µM. On to `CN(C)CCC=C1c2ccccc2C=Cc2ccccc21` [cyclobenzaprine, N,N-dimethyl-3-(2-tricyclo[9.4.0.03,8]pentadeca-1(15),3,5,7,9,11,13-heptaenylidene)propan-1-amine], for which the IC50 is 13.2 µM. To `CCC(=O)O[C@@H](O[P@](=O)(CCCCc1ccccc1)CC(=O)N1C[C@H](C2CCCCC2)C[C@H]1C(=O)O)C(C)C` [fosinopril, (2S,4S)-4-cyclohexyl-1-[2-[(2-methyl-1-propanoyloxypropoxy)-(4-phenylbutyl)phosphoryl]acetyl]pyrrolidine-2-carboxylic acid] belongs 0.849 µM; to `O=C(O)[C@@H]1C[C@@H](C2CCCCC2)CN1C(=O)CP(=O)(O)CCCCc1ccccc1` [fosinoprilat, (2S,4S)-4-cyclohexyl-1-{2-[hydroxy(4-phenylbutyl)phosphoryl]acetyl}pyrrolidine-2-carboxylic acid], 39.9 µM.

For the compound `C[C@]12CC[C@@H]3c4ccc(O)cc4C[C@@H](CCCCCCCCC[S+]([O-])CCCC(F)(F)C(F)(F)F)[C@H]3[C@@H]1CC[C@@H]2O` (stereo partly drawn) [fulvestrant, (7R,8R,9S,13S,14S,17S)-13-methyl-7-[9-(4,4,5,5,5-pentafluoropentylsulfinyl)nonyl]-6,7,8,9,11,12,14,15,16,17-decahydrocyclopenta[a]phenanthrene-3,17-diol], the IC50 was determined as 18.5 µM. To `CN(CCCN1c2ccccc2CCc2ccccc21)CC(=O)c1ccc(Cl)cc1` [lofrepramine, 1-(4-chlorophenyl)-2-[3-(5,6-dihydrobenzo[b][1]benzazepin-11-yl)propyl-methylamino]ethanone] belongs 41.7 µM; to `CCOC(=O)N1CCC(=C2c3ccc(Cl)cc3CCc3cccnc32)CC1` [loratadine, ethyl 4-{13-chloro-4-azatricyclo [9.4.0.03, 8]pentadeca1(11),3(8), 4,6,12,14-hexaen-2-ylidene}piperidine-1-carboxylate], 21.8 µM; to `C1CCC(C(CC2CCCCN2)C2CCCCC2)CC1` (stereo not drawn) [perhexiline, 2-(2,2-dicyclohexylethyl) piperidine], 31.1 µM.

As to `CCN(CC)C(C)CN1c2ccccc2Sc2ccccc21` (stereo not drawn) [profenamine, N,N-diethyl-1-phenothiazin-10-ylpropan-2-amine], the IC50 amounted to 40.9 µM. In the case of `CC(C)NCC(O)COc1cccc2ccccc12` (stereo not drawn) [propranolol, 1-(naphthalen-1-yloxy)-3-[(propan-2-yl)amino] propan-2-ol] it was 45.8 µM; in that of `O=C(c1ccc(OCCN2CCCCC2)cc1)c1c(-c2ccc(O)cc2)sc2cc(O)ccc12` [raloxifene, [6-hydroxy-2-(4-hydroxyphenyl)-1-benzothiophen-3-yl]-[4-(2-piperidin-1-ylethoxy)phenyl]methanone], 50.6 µM; in that of `NCC[C@H](Oc1ccc(C(F)(F)F)cc1)c1ccccc1` [seproxitine, (3S)-3-phenyl-3-[4-(trifluoromethyl)phenoxy]propan-1-amine], 20.9 µM. In the case of `CC/C(=C(\c1ccccc1)c1ccc(OCCN(C)C)cc1)c1ccccc1` [tamoxifen] it was 20.1 µM.

Source of the values: paper PMC11277439, “The role of lysosomal phospholipase A2 in the catabolism of bis(monoacylglycerol)phosphate and association with phospholipidosis” (Journal of Lipid Research, 2024).
